Assay results as given in patent publication US5750782A, “Nitroaniline derivatives and their use as anti-tumour agents” (priority 1996, dated 1998).
Where two headings read alike, the source gives them in different places.

Key:
other tumours = details: cited from earlier work
[1] = tested on: bacterial nitroreductase enzymes; details: PCT/GB92/01947; cited from earlier work
EC.1.6.99.2 = details: Walker cell enzyme; cited from earlier work
Walker tumour cells = details: in vivo or in vitro; cited from earlier work
[2] = tested on: bacterial nitroreductase enzymes; test: Reductive activation by bacterial nitroreductase enzymes; assay type: biochemical, Escherichia coli and Bacillus amyloliquifaciens; details: Examples 1 to 3
AA8 = test: Growth inhibition (IC50), AA8 cells, aerobic; assay type: cell-based; details: air, 18 h exposure
Method: (§1) Growth inhibition studies were performed as described in detail elsewhere (W.R. Wilson, R.F. Anderson and W.A Denny. J Med. Chem., 1989, 32, 23; G.J. Finlay, B.C. Baguley and W.R. Wilson. Anal Biochem., 1984, 139, 172.), using 200 viable AA8 or 300 viable UV4 cells plus 5000 lethally-irradiated AA8 feeder cells per well in 96-well tissue culture dishes. AA8 and UV4 cells were maintained in logarithmic-phase growth in […] tissue culture flasks with subculture twice weekly by trypsinization. The growth medium was antibiotic-free α-MEM with 10% v/v heat-inactivated ([…], 40 min) fetal calf serum. Doubling times were approximately 14h for AA8 and 15h for UV4 cells.

E. coli nitroreductase = molecular target: T1, E. coli nitroreductase (Escherichia coli, UniProt P38489); test: Drug reduction by the E. coli nitroreductase; assay type: biochemical; details: 120 min
T1 sequence (P38489 1-217): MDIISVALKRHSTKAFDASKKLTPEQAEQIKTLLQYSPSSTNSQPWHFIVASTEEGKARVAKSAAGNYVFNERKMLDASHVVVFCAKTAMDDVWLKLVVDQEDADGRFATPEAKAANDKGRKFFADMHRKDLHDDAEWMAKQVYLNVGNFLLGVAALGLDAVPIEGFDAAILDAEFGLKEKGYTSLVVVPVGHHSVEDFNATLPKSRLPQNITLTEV

V79 cells [3] = test: Survival of V79 cells in the presence of the E. coli nitroreductase: A5B7 F(ab)2 conjugate; assay type: cell-based; details: 2 h, 37° C
Method: (§2) The conjugate concentration was 81 μg/ml (euivalent to 5.2 μg/ml nitroreductase) and NADII was used as a co-factor. […] No attempt was made to remove unbound conjugate.

AA8 cells = test: Radiosensitisation of hypoxic AA8 cells, gamma irradiation; assay type: cell-based
Method: The radiosensitising efficiency of compound 1 has been assessed in stirred suspensions of AA8 cells under hypoxie conditions using gamma irradiation (cobalt 60) at a dose rate of 2.2 Gy/min at 37° C. Drug and cells were mixed under hypoxic conditions 30 min before irradiation.

UV4 = test: Growth inhibition (IC50), UV4 cells, aerobic; assay type: cell-based; details: air, 18 h exposure
Method: as §1

V79 cells [4] = test: Survival of V79 cells in the presence of the B. amyloliquifaciens nitroreductase; assay type: cell-based; details: 2 h, 37° C
Method: The effect of SN23862 on the survival of V79 cells in the preence of the B. amyloliquifaciens nitroreductase. All treatments were for 2 hours at 37° C. and the cells were then plated out for their resulting colony forming ability. […] The initial cell density was 2×10^5 /mL.

MAWI Cells = test: Survival of Mawi cells in the presence of the E. coli nitroreductase: A5B7 F(ab)2 conjugate; assay type: cell-based; details: 2 h, 37° C
Method: as §2

AA8 and UV4 cell lines = test: Ratio of IC50 values against AA8 and UV4 cell lines (HFair); assay type: cell-based; details: 18 h exposure
Method: as §1
Ratio of IC50 values for a compound after exposure as detailed above against AA8 and UV4 cell lines (HF=IC50 (AA8)/IC50 (UV4)).

UV4 cell line = test: Ratio of IC50 values against UV4 cell line in presence and absence of E. coli nitroreductase enzyme NTR-2; assay type: cell-based; details: air, ratio of IC50 in presence and absence of E. coli nitroreductase NTR-2, 1080 min
Method: as §1
Ratio of IC50 values for a compound after exposure as detailed above against the UV4 cell line in the presence and absence of the E. coli nitroreductase enzyme NTR-2.

V79 cells [5] = details: 2 h, 37° C
Method: (§3) The nitroreductase concentration was 2 μg/ml and NADH was used as a co-factor. The initial cell density was 2×10^5 /mL.

[6] = molecular target: T2, B. amyloliquifaciens nitroreductase (Bacillus amyloliquefaciens, UniProt Q8VSR5); test: Drug reduction by the B. amyloliquifaciens nitroreductase; assay type: biochemical; details: 120 min
T2 sequence (Q8VSR5 1-174): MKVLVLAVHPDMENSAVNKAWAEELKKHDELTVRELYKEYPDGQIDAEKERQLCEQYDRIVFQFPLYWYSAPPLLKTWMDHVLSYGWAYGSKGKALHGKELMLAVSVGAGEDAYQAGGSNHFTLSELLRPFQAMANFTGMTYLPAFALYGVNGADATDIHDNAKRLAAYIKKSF
Method: The nitroreductase concentration was 7.45 μg/ml and NADII was ised as a co-factor.

UV4 cells = test: Clonogenic assay, UV4 cells (CT10), aerobic and hypoxic; assay type: cell-based
Excerpt: The product (in μM-hr) of the drug concentration times the exposure time to reduce cell survival to 10% of control values in the clonogenic assay.
Ratio of CT10 values after exposure of UV4 cells as detailed above under either aerobic (air) or hypoxic (N2) conditions (=aerobic CT10 /hypoxic CT10).

[7] = molecular target: T3, E. coli nitroreductase: A5B7 F(ab)2 conjugate (Escherichia coli, UniProt P38489); test: Drug reduction by the E. coli nitroreductase: A5B7 F(ab)2 conjugate; assay type: biochemical; details: 120 min
T3 construct: A5B7 F(ab)2 antibody fragment (conjugate)
T3 sequence (P38489 1-217): T1 sequence (P38489 1-217)
Method: as §2

[8] = product of CB 1954 reduction by Walker cell enzyme; cited from earlier work
V79 cells [9] = test: Survival of V79 cells in the presence of the E. coli nitroreductase; details: hamster, 2 h
Method: as §3

[10] = +CG (81 μg/ml) + SN23862 + 500 μM NADH

SMILES: NC(=O)c1cc(N2CC2)c([N+](=O)[O-])cc1[N+](=O)[O-] [CB 1954, 5-(aziridin-1-yl)-2,4-dinitrobenzaride]
- activity against other tumours (other tumours): virtually inactive
- conversion into an active anti-tumour agent by bacterial nitroreductases [1]: capable of converting CB 1954 into an active anti-tumour agents
- reduction of the 4-nitro group to the corresponding hydroxylamine (EC.1.6.99.2): ability to reduce the 4-nitro group of CB 1954
- activity against the Walker tumour cells (Walker tumour cells): considerable activity

SMILES: NC(=O)c1cc(N(CCCl)CCCl)c([N+](=O)[O-])cc1[N+](=O)[O-] [Compound 1, 5-[N,N-bis(2-chloroethyl)amino]-2,4-diritrobenzamide]
- reductive activation by bacterial nitroreductase enzymes [2]: reductively activated by bacterial nitroreductase enzymes
- IC50 (AA8): 468 µM
- % DRUG REDUCTION (E. coli nitroreductase; +50 μM SN23862): < 1.0%
- % DRUG REDUCTION (E. coli nitroreductase; +NADH + SN23862): < 1.0%
- % DRUG REDUCTION (E. coli nitroreductase; +NR + 50 μM SN23862): < 1.0%
- % DRUG REDUCTION (E. coli nitroreductase; +NR + SN23862 + 500 μM NADH): 95%
- % SURVIVAL V79 Cells (V79 cells [3]; +50 μM SN23862): 94.3%
- % SURVIVAL V79 Cells (V79 cells [3]; +CG (81 μg/ml) + 50 μM SN23862): 73.5%
- % SURVIVAL V79 Cells (V79 cells [3]; [10]): 0.003%
- % SURVIVAL V79 Cells (V79 cells [3]; +NADH + SN23862): 80.4%
- drug toxicity at this extent of sensitisation (AA8 cells; at C1.6, hypoxic AA8 cells, FIG. 1): absence of drug toxicity
- Radiosensitisation of hypoxic cells (AA8 cells; hypoxic AA8 cells, FIG. 1): Radiosensitisation of hypoxic cells was observed
- C1.6 (concentration for an enhancement ratio of 1.6) (AA8 cells; hypoxic, 10% survival, cobalt 60, 2.2 Gy/min, 37° C, drug 30 min before irradiation): approximately 100 μM
- IC50 (UV4): 109 µM
- % SURVIVAL (V79 cells [4]; +50 μM SN23862): 110%
- % SURVIVAL (V79 cells [4]; +BA (7.45 μg/ml) + 50 μM SN23862): 110%
- % SURVIVAL (V79 cells [4]; +BA (7.45 μg/ml) + SN23862 + 500 μM NADH): 6.0%
- % SURVIVAL (V79 cells [4]; +NADH + SN23862): 115%
- % SURVIVAL MAWI Cells (MAWI Cells; +50 μM SN23862): 90.9%
- % SURVIVAL MAWI Cells (MAWI Cells; +CG (81 μg/ml) + 50 μM SN23862): 94.6%
- % SURVIVAL MAWI Cells (MAWI Cells; [10]): 0.014%
- % SURVIVAL MAWI Cells (MAWI Cells; +NADH + SN23862): 93.1%
- HF (air) = IC50 (AA8)/IC50 (UV4) (AA8 and UV4 cell lines): 6.8
- HF (NR-2) (UV4 cell line): 73.5
- % SURVIVAL (V79 cells [5]; +50 μM SN23862): 100%
- % SURVIVAL (V79 cells [5]; +NADH + SN23862): 100%
- % SURVIVAL (V79 cells [5]; +NR (2 μg/ml) + 50 μM SN23862): 99%
- % SURVIVAL (V79 cells [5]; +NR (2 μg/ml) + SN23862 + 500 μM NADH): 0.007%
- % DRUG REDUCTION ([6]; +50 μM SN23862): < 1.0%
- % DRUG REDUCTION ([6]; +BA + 50 μM SN23862): < 1.0%
- % DRUG REDUCTION ([6]; +BA + SN23862 + 500 μM NADH): > 95%
- % DRUG REDUCTION ([6]; +NADH + SN23862): < 1.0%
- CT10 ratio (air/N2) (UV4 cells; UV4 cells, aerobic CT10/hypoxic CT10): 58
- CT10 (UV4) (UV4 cells; air, concentration x time to reduce UV4 cell survival to 10% of control): 2925 μM-h
- hypoxia-selective cytotoxicity (UV4 cells; conclusion in words): hypoxia-selective cytotoxin
- % DRUG REDUCTION ([7]; +50 μM SN23862): < 1.0%
- % DRUG REDUCTION ([7]; +CG + 50 μM SN23862): < 1.0%
- % DRUG REDUCTION ([7]; +CG + SN23862 + 500 μM NADH): > 99%
- % DRUG REDUCTION ([7]; +NADH + SN23862): < 1.0%

SMILES: NC(=O)c1cc(N2CC2)c(NO)cc1[N+](=O)[O-] [5-(aziridin-1-yl)-2-nitro-4-hydroxylamino-benzamide]
- anti-tumour activity [8]: active anti-tumour agent

SMILES: NC(=O)C1=CN([C@@H]2O[C@H](COP(=O)(O)OP(=O)(O)OC[C@H]3O[C@@H](n4cnc5c(N)ncnc54)[C@H](O)[C@@H]3O)[C@@H](O)[C@H]2O)C=CC1 [NADH, reference compound]
- % SURVIVAL V79 Cells (V79 cells [3]; +500 μM NADH alone): 94.6%
- % SURVIVAL (V79 cells [4]; +500 μM NADH alone): 120%
- % SURVIVAL MAWI Cells (MAWI Cells; +500 μM NADH alone): 104.6%
- % SURVIVAL (V79 cells [9]): 100%
